Test results reported in the NIST ThermoML archive (doi:10.1016/j.jct.2015.11.027).

Conditions: Liquid, Vibrating wire viscometry

CCc1ccccc1 [ethylbenzene]
Conditions | viscosity [mPa·s]
253.21 K, 5000 kPa | 1.259
253.22 K, 1000 kPa | 1.211
253.22 K, 10000 kPa | 1.311
253.22 K, 35000 kPa | 1.593
253.23 K, 100 kPa | 1.2
253.23 K, 20000 kPa | 1.423
253.23 K, 25000 kPa | 1.479
253.24 K, 15000 kPa | 1.368
253.24 K, 30000 kPa | 1.535
263.2 K, 10000 kPa | 1.11
263.2 K, 15000 kPa | 1.16
263.21 K, 5000 kPa | 1.063
263.21 K, 20000 kPa | 1.207
263.21 K, 25000 kPa | 1.257
263.21 K, 35000 kPa | 1.35
263.22 K, 100 kPa | 1.021
263.22 K, 1000 kPa | 1.028
263.22 K, 30000 kPa | 1.304
273.15 K, 5000 kPa | 0.9249
273.15 K, 20000 kPa | 1.042
273.15 K, 30000 kPa | 1.123
273.15 K, 35000 kPa | 1.163
273.16 K, 25000 kPa | 1.082
273.17 K, 1000 kPa | 0.8919
273.18 K, 10000 kPa | 0.9635
273.19 K, 15000 kPa | 1.003
273.21 K, 100 kPa | 0.8832
283.13 K, 1000 kPa | 0.7784
283.14 K, 10000 kPa | 0.8372
283.15 K, 20000 kPa | 0.9017
283.16 K, 100 kPa | 0.7737
283.16 K, 5000 kPa | 0.8028
283.16 K, 30000 kPa | 0.9641
283.16 K, 35000 kPa | 0.9964
283.17 K, 15000 kPa | 0.8678
283.17 K, 25000 kPa | 0.9314
293.18 K, 5000 kPa | 0.7056
293.2 K, 1000 kPa | 0.6832
293.22 K, 25000 kPa | 0.8173
293.23 K, 15000 kPa | 0.7607
293.24 K, 10000 kPa | 0.7327
293.24 K, 20000 kPa | 0.7871
293.24 K, 30000 kPa | 0.8447
293.26 K, 100 kPa | 0.6786
293.26 K, 35000 kPa | 0.8724
303.15 K, 100 kPa | 0.6033
303.17 K, 1000 kPa | 0.6074
303.17 K, 20000 kPa | 0.6989
303.18 K, 5000 kPa | 0.6268
303.18 K, 25000 kPa | 0.7235
303.18 K, 35000 kPa | 0.7739
303.19 K, 15000 kPa | 0.6744
303.19 K, 30000 kPa | 0.7502
303.2 K, 10000 kPa | 0.6499
313.08 K, 30000 kPa | 0.6722
313.09 K, 20000 kPa | 0.6261
313.1 K, 10000 kPa | 0.5812
313.1 K, 25000 kPa | 0.649
313.1 K, 35000 kPa | 0.694
313.11 K, 5000 kPa | 0.5596
313.12 K, 100 kPa | 0.5386
313.12 K, 1000 kPa | 0.5427
313.12 K, 15000 kPa | 0.6039
322.97 K, 100 kPa | 0.4865
322.97 K, 20000 kPa | 0.5648
322.98 K, 1000 kPa | 0.4895
322.98 K, 5000 kPa | 0.5042
322.98 K, 10000 kPa | 0.5245
322.98 K, 15000 kPa | 0.544
322.98 K, 25000 kPa | 0.5856
322.98 K, 30000 kPa | 0.606
322.98 K, 35000 kPa | 0.6259
332.91 K, 100 kPa | 0.4422
332.91 K, 5000 kPa | 0.4595
332.92 K, 1000 kPa | 0.4448
332.92 K, 10000 kPa | 0.478
332.92 K, 15000 kPa | 0.4961
332.92 K, 20000 kPa | 0.5149
332.92 K, 25000 kPa | 0.5331
332.92 K, 30000 kPa | 0.5516
332.92 K, 35000 kPa | 0.5706
342.8 K, 1000 kPa | 0.4049
342.8 K, 10000 kPa | 0.4356
342.8 K, 15000 kPa | 0.4524
342.8 K, 20000 kPa | 0.4691
342.8 K, 25000 kPa | 0.4869
342.8 K, 30000 kPa | 0.5045
342.8 K, 35000 kPa | 0.5223
342.81 K, 100 kPa | 0.4022
342.81 K, 5000 kPa | 0.4186
352.72 K, 5000 kPa | 0.3851
352.72 K, 20000 kPa | 0.4335
352.72 K, 35000 kPa | 0.4807
352.73 K, 100 kPa | 0.3693
352.73 K, 1000 kPa | 0.372
352.73 K, 10000 kPa | 0.4003
352.73 K, 15000 kPa | 0.4164
352.73 K, 25000 kPa | 0.4495
352.73 K, 30000 kPa | 0.4654
362.66 K, 100 kPa | 0.339
362.66 K, 1000 kPa | 0.3418
362.66 K, 5000 kPa | 0.3538
362.66 K, 15000 kPa | 0.3838
362.66 K, 20000 kPa | 0.3986
362.66 K, 25000 kPa | 0.4137
362.66 K, 30000 kPa | 0.4289
362.67 K, 10000 kPa | 0.3685
362.67 K, 35000 kPa | 0.4429
372.59 K, 5000 kPa | 0.3272
372.59 K, 10000 kPa | 0.341
372.59 K, 15000 kPa | 0.3541
372.59 K, 20000 kPa | 0.3688
372.59 K, 25000 kPa | 0.3822
372.59 K, 30000 kPa | 0.3967
372.59 K, 35000 kPa | 0.4108
372.6 K, 1000 kPa | 0.3155
372.61 K, 100 kPa | 0.3127
